In patent US8247211B2, “Glycopeptide antibiotics” (American Cyanamid Company, priority 2001, dated 2012):

What was measured:
Assay in all cases: In vitro antibacterial evaluation: minimum inhibitory concentration (MIC), broth dilution method
Assay type in all cases: cell-based
Streptococcus sp. = system: Streptococcus sp.
Description: (§1) The minimum inhibitory concentration (MIC), the lowest concentration of the antibiotic which inhibits growth of the test organism, is determined by the broth dilution method using Muller-Hinton II […] (Baltimore Biological Laboratories) following the recommendations of the National Committee for Clinical Laboratory Standards [Methods for dilution antimicrobial susceptibility tests for bacteria that grow aerobically, approved standard M7-A2, National Committee for Clinical Laboratory Standards, Villanova, Pa].
(§2) An inoculum level of 5×10^5 CFU/mL, and a range of antibiotic concentrations (64-0.06 μg/mL) is used. […] The test organisms include a spectrum of Gram-positive bacteria comprised of Staphylococcus sp., Streptococcus sp. and Enterococcus sp. These organisms include recent clinical isolates that are resistant to methicillin, penicillin and/or vancomycin.

Escherichia coli = system: Escherichia coli
Description: as §1, §2

Staphylococcus sp. = conditions: 18 hours at 35° C.
Description: as §1, §2

Enterococcus sp. = system: Enterococcus sp.
Description: as §1, §2

[1] = broth dilution, inoculum 5×10^5 CFU/mL, 18 hours at 35° C.

COc1cccc(C2OC3C(OC4C(CO)OC(Oc5ccc(CC6NC(=O)C(C(C)c7ccccc7)NC(=O)CNC(=O)C(CO)NC(=O)C(C(O)C7CNC(=N)N7C7OC(CO)C(O)C(O)C7O)NC(=O)C(C(O)C7CNC(=N)N7)NC6=O)cc5)C(O)C4O)OC(CO)C(O)C3O2)c1 (single isomer, unassigned) [Example 137b, Cyclo[glycyl-β-methylphenylalanyl-O-[4-O-[2,3-O-(3-methoxybenzylidene)hexopyranosyl]-hexopyranosyl]tyrosyl-3-(2-iminoimidazolidin-4-yl)seryl-3-(3-hexopyranosyl-2-iminoimidazolidin-4-yl)serylseryl]]
32 µg/mL: MIC Enterococcus faecalis (ATCC 29212) (Enterococcus sp.; strain ATCC 29212) | MIC Enterococcus faecalis (GC 2242) (Enterococcus sp.; strain GC 2242) | MIC Enterococcus faecalis (GC 2691) (Enterococcus sp.; strain GC 2691) | MIC Enterococcus faecalis (GC 4552) (Enterococcus sp.; strain GC 4552) | MIC Enterococcus faecalis (GC 4553) (Enterococcus sp.; strain GC 4553) | MIC Enterococcus faecium (GC 4556) (Enterococcus sp.; strain GC 4556) | MIC Enterococcus avium (GC 4558) (Enterococcus sp.; strain GC 4558) | MIC Enterococcus faecalis (GC 6189) (Enterococcus sp.; strain GC 6189)
>64 µg/mL: MIC Escherichia coli (ATCC 25922) (Escherichia coli; strain ATCC 25922) | MIC Escherichia coli (GC 4559) (Escherichia coli; strain GC 4559)
64 µg/mL: MIC Enterococcus faecium (GC 2243) (Enterococcus sp.; strain GC 2243) | MIC Enterococcus faecalis (GC 3059) (Enterococcus sp.; strain GC 3059) | MIC Enterococcus faecalis (GC 4554) (Enterococcus sp.; strain GC 4554)
1 µg/mL: MIC Streptococcus pneumoniae (GC 1894) (Streptococcus sp.; strain GC 1894)
4 µg/mL: MIC Streptococcus pyogenes (GC 4563) (Streptococcus sp.; strain GC 4563) | MIC Streptococcus agalactiae (GC 4564) (Streptococcus sp.; strain GC 4564) | MIC Escherichi coli (GC 4560) (Escherichia coli; strain GC 4560) | MIC Coagulase Negative Staphylococcus (GC 4548) (Staphylococcus sp.; broth dilution, 5×10^5 CFU/mL) | MIC Coagulase Negative Staphylococcus (GC 6257) (Staphylococcus sp.; broth dilution, 5×10^5 CFU/mL) | MIC Coagulase Negative Staphylococcus (GC 4548) (Staphylococcus sp.; strain GC 4548, broth dilution) | MIC Coagulase Negative Staphylococcus (GC 6257) (Staphylococcus sp.; strain GC 6257, broth dilution)
2 µg/mL: MIC Streptococcus pneumoniae (ATCC 6301) (Streptococcus sp.; strain ATCC 6301) | MIC Streptococcus pneumoniae (GC 4565) (Streptococcus sp.; strain GC 4565)
16 µg/mL: MIC Staphylococcus aureus (ATCC 29213) (Staphylococcus sp.; broth dilution, 5×10^5 CFU/mL) | MIC Staphylococcus aureus (GC 1131) (Staphylococcus sp.; broth dilution, 5×10^5 CFU/mL) | MIC Staphylococcus aureus (GC 3051) (Staphylococcus sp.; broth dilution, 5×10^5 CFU/mL) | MIC Staphylococcus aureus (GC 3053) (Staphylococcus sp.; broth dilution, 5×10^5 CFU/mL) | MIC Staphylococcus aureus (GC 4542) (Staphylococcus sp.; broth dilution, 5×10^5 CFU/mL) | MIC Staphylococcus aureus (GC 4544) (Staphylococcus sp.; broth dilution, 5×10^5 CFU/mL) | MIC Staphylococcus aureus (GC 4545) (Staphylococcus sp.; broth dilution, 5×10^5 CFU/mL) | MIC Staphylococcus aureus (ATCC 29213) (Staphylococcus sp.; strain ATCC 29213, broth dilution) | MIC Staphylococcus aureus (GC 1131) (Staphylococcus sp.; strain GC 1131, broth dilution) | MIC Staphylococcus aureus (GC 3051) (Staphylococcus sp.; strain GC 3051, broth dilution) | MIC Staphylococcus aureus (GC 3053) (Staphylococcus sp.; strain GC 3053, broth dilution) | MIC Staphylococcus aureus (GC 4542) (Staphylococcus sp.; strain GC 4542, broth dilution) | MIC Staphylococcus aureus (GC 4544) (Staphylococcus sp.; strain GC 4544, broth dilution) | MIC Staphylococcus aureus (GC 4545) (Staphylococcus sp.; strain GC 4545, broth dilution)
8 µg/mL: MIC Coagulase Negative Staphylococcus (GC 4547) (Staphylococcus sp.; broth dilution, 5×10^5 CFU/mL) | MIC Coagulase Negative Staphylococcus (GC 4549) (Staphylococcus sp.; broth dilution, 5×10^5 CFU/mL) | MIC Coagulase Negative Staphylococcus (GC 4551) (Staphylococcus sp.; broth dilution, 5×10^5 CFU/mL) | MIC Staphylococcus aureus (GC 4541) (Staphylococcus sp.; broth dilution, 5×10^5 CFU/mL) | MIC Staphylococcus aureus-SMITH (GC 4543) (Staphylococcus sp.; broth dilution, 5×10^5 CFU/mL) | MIC Staphylococcus haemolyticus (GC 4546) (Staphylococcus sp.; broth dilution, 5×10^5 CFU/mL) | MIC Staphylococcus aureus (GC 4541) (Staphylococcus sp.; strain GC 4541, broth dilution) | MIC Staphylococcus aureus-SMITH (GC 4543) (Staphylococcus sp.; strain GC 4543, broth dilution) | MIC Staphylococcus haemolyticus (GC 4546) (Staphylococcus sp.; strain GC 4546, broth dilution) | MIC Coagulase Negative Staphylococcus (GC 4547) (Staphylococcus sp.; strain GC 4547, broth dilution) | MIC Coagulase Negative Staphylococcus (GC 4549) (Staphylococcus sp.; strain GC 4549, broth dilution) | MIC Coagulase Negative Staphylococcus (GC 4551) (Staphylococcus sp.; strain GC 4551, broth dilution) | MIC Enterococcus faecium (GC 4557) (Enterococcus sp.; strain GC 4557)

CC(c1ccccc1)C1NC(=O)CNC(=O)C(CO)NC(=O)C(C(O)C2CNC(=N)N2C2OC(CO)C(O)C(O)C2O)NC(=O)C(C(O)C2CNC(=N)N2)NC(=O)C(Cc2ccc(OC3OC(CO)C(OC4OC(COCC=Cc5ccccc5)C(O)C(O)C4O)C(O)C3O)cc2)NC1=O (stereo not drawn) [Example 242, Cyclo[glycyl-β-methylphenylalanyl-O-[4-O-[6-O-(3-phenylprop-2-en-1-yl)hexopyranosyl]-hexopyranosyl]tyrosyl-3-(2-iminoimidazolidin-4-yl)seryl-3-(3-hexopyranosyl-2-iminoimidazolidin-4-yl)serylseryl]]
4 µg/mL: MIC Coagulase Negative Staphylococcus (GC 4548) (Staphylococcus sp.; Coagulase Negative Staphylococcus (GC 4548)) | MIC Coagulase Negative Staphylococcus (GC 4549) (Staphylococcus sp.; Coagulase Negative Staphylococcus (GC 4549)) | MIC Staphylococcus aureus (GC 4541) (Staphylococcus sp.; Staphylococcus aureus (GC 4541)) | MIC Staphylococcus aureus (GC 4542) (Staphylococcus sp.; Staphylococcus aureus (GC 4542)) | MIC Staphylococcus aureus (GC 4545) (Staphylococcus sp.; Staphylococcus aureus (GC 4545)) | MIC Staphylococcus haemolyticus (GC 4546) (Staphylococcus sp.; Staphylococcus haemolyticus (GC 4546))
8 µg/mL: MIC Coagulase Negative Staphylococcus (GC 4547) (Staphylococcus sp.; Coagulase Negative Staphylococcus (GC 4547)) | MIC Staphylococcus aureus (ATCC 29213) (Staphylococcus sp.; Staphylococcus aureus (ATCC 29213)) | MIC Staphylococcus aureus (GC 1131) (Staphylococcus sp.; Staphylococcus aureus (GC 1131)) | MIC Staphylococcus aureus (GC 3051) (Staphylococcus sp.; Staphylococcus aureus (GC 3051)) | MIC Staphylococcus aureus (GC 3053) (Staphylococcus sp.; Staphylococcus aureus (GC 3053)) | MIC Staphylococcus aureus (GC 4544) (Staphylococcus sp.; Staphylococcus aureus (GC 4544)) | MIC Staphylococcus aureus-SMITH (GC 4543) (Staphylococcus sp.; Staphylococcus aureus-SMITH (GC 4543)) | MIC Enterococcus faecium (GC 4557) (Enterococcus sp.; Enterococcus faecium (GC 4557), 18 hours at 35° C.)
2 µg/mL: MIC Streptococcus agalactiae (GC 4564) (Streptococcus sp.; Streptococcus agalactiae (GC 4564), 18 hours at 35° C.) | MIC Streptococcus pyogenes (GC 4563) (Streptococcus sp.; Streptococcus pyogenes (GC 4563), 18 hours at 35° C.) | MIC Streptococcus agalactiae (GC 4564) (Streptococcus sp.; [1]) | MIC Streptococcus pyogenes (GC 4563) (Streptococcus sp.; [1]) | MIC Escherichia coli (GC 4560) (Escherichia coli; Escherichia coli (GC 4560), 18 hours at 35° C.) | MIC Coagulase Negative Staphylococcus (GC 6257) (Staphylococcus sp.; Coagulase Negative Staphylococcus (GC 6257))
1 µg/mL: MIC Streptococcus pneumoniae (ATCC 6301) (Streptococcus sp.; Streptococcus pneumoniae (ATCC 6301), 18 hours at 35° C.) | MIC Streptococcus pneumoniae (ATCC 6301) (Streptococcus sp.; [1])
0.5 µg/mL: MIC Streptococcus pneumoniae (GC 1894) (Streptococcus sp.; Streptococcus pneumoniae (GC 1894), 18 hours at 35° C.) | MIC Streptococcus pneumoniae (GC 4565) (Streptococcus sp.; Streptococcus pneumoniae (GC 4565), 18 hours at 35° C.) | MIC Streptococcus pneumoniae (GC 1894) (Streptococcus sp.; [1]) | MIC Streptococcus pneumoniae (GC 4565) (Streptococcus sp.; [1])
>64 µg/mL: MIC Escherichia coli (ATCC 25922) (Escherichia coli; Escherichia coli (ATCC 25922), 18 hours at 35° C.) | MIC Escherichia coli (GC 4559) (Escherichia coli; Escherichia coli (GC 4559), 18 hours at 35° C.)
16 µg/mL: MIC Coagulase Negative Staphylococcus (GC 4551) (Staphylococcus sp.; Coagulase Negative Staphylococcus (GC 4551)) | MIC Enterococcus avium (GC 4558) (Enterococcus sp.; Enterococcus avium (GC 4558), 18 hours at 35° C.) | MIC Enterococcus faecalis (ATCC 29212) (Enterococcus sp.; Enterococcus faecalis (ATCC 29212), 18 hours at 35° C.) | MIC Enterococcus faecalis (GC 2242) (Enterococcus sp.; Enterococcus faecalis (GC 2242), 18 hours at 35° C.) | MIC Enterococcus faecalis (GC 2691) (Enterococcus sp.; Enterococcus faecalis (GC 2691), 18 hours at 35° C.) | MIC Enterococcus faecalis (GC 3059) (Enterococcus sp.; Enterococcus faecalis (GC 3059), 18 hours at 35° C.) | MIC Enterococcus faecalis (GC 4552) (Enterococcus sp.; Enterococcus faecalis (GC 4552), 18 hours at 35° C.) | MIC Enterococcus faecalis (GC 4553) (Enterococcus sp.; Enterococcus faecalis (GC 4553), 18 hours at 35° C.) | MIC Enterococcus faecalis (GC 4554) (Enterococcus sp.; Enterococcus faecalis (GC 4554), 18 hours at 35° C.) | MIC Enterococcus faecalis (GC 6189) (Enterococcus sp.; Enterococcus faecalis (GC 6189), 18 hours at 35° C.) | MIC Enterococcus faecium (GC 2243) (Enterococcus sp.; Enterococcus faecium (GC 2243), 18 hours at 35° C.) | MIC Enterococcus faecium (GC 4556) (Enterococcus sp.; Enterococcus faecium (GC 4556), 18 hours at 35° C.) | MIC Enterococcus faecalis (GC 2242) (Enterococcus sp.; [1]) | MIC Enterococcus faecalis (GC 2691) (Enterococcus sp.; [1]) | MIC Enterococcus faecalis (GC 3059) (Enterococcus sp.; [1])
